Reference: ChEMBL document CHEMBL1156860, “Synthesis and biological activities of novel indole derivatives as potent and selective PPARgamma modulators” (Bioorg Med Chem Lett, 2010)

Key:
[1] = target: T1, Peroxisome proliferator-activated receptor alpha (Homo sapiens, UniProt Q07869); assay: Agonist activity at human PPARalpha expressed in african green monkey CV1 cells by Gal4 transactivation assay; type: functional, cell-based, CV-1
T1 sequence (Q07869 whole entry): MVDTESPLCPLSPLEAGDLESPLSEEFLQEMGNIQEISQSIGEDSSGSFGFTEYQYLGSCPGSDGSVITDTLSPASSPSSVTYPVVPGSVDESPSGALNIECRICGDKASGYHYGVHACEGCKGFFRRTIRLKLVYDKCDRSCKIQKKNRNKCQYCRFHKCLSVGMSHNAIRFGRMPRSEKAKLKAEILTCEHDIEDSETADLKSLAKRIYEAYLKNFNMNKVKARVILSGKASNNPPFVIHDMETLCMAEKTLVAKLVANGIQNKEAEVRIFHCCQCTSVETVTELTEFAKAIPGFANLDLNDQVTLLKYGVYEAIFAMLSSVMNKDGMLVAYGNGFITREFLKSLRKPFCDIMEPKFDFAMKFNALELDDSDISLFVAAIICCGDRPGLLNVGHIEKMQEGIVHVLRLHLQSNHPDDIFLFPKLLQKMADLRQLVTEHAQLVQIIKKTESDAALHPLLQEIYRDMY

[2] = target: T1, Peroxisome proliferator-activated receptor alpha; assay: Displacement of radiolabeled GW-2433 from human PPARalpha ligand binding domain expressed in Escherichia coli
[3] = target: T2, Peroxisome proliferator-activated receptor gamma (Homo sapiens, UniProt P37231)
T2 sequence (P37231 whole entry): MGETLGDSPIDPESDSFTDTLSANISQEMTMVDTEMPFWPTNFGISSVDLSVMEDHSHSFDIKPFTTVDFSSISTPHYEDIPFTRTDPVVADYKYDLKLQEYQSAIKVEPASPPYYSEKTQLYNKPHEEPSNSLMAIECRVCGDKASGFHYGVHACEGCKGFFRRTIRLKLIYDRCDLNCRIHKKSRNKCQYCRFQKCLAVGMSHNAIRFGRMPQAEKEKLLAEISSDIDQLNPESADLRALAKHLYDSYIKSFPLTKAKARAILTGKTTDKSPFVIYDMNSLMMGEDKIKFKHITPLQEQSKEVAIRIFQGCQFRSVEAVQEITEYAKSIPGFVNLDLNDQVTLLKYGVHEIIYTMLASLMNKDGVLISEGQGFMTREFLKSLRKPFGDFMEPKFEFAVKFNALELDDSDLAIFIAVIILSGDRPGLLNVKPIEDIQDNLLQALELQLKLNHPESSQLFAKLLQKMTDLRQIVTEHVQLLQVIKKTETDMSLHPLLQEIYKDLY
Description: Agonist activity at human PPARgamma expressed in african green monkey CV1 cells by Gal4 transactivation assay

[4] = target: T2, Peroxisome proliferator-activated receptor gamma; remark: listed apart in the source
Description: Displacement of radiolabeled ((5-{4-[Methyl-pyridin-2yl-amino)-ethoxy]-benzyl}-thiazolidine-2,4-dione) from human PPARgamma ligand binding domain expressed in Escherichia coli

[5] = target: T3, Peroxisome proliferator-activated receptor delta (Homo sapiens, UniProt Q03181); assay: Displacement of radiolabeled GW-2433 from human PPARdelta ligand binding domain expressed in Escherichia coli
T3 sequence (Q03181 whole entry): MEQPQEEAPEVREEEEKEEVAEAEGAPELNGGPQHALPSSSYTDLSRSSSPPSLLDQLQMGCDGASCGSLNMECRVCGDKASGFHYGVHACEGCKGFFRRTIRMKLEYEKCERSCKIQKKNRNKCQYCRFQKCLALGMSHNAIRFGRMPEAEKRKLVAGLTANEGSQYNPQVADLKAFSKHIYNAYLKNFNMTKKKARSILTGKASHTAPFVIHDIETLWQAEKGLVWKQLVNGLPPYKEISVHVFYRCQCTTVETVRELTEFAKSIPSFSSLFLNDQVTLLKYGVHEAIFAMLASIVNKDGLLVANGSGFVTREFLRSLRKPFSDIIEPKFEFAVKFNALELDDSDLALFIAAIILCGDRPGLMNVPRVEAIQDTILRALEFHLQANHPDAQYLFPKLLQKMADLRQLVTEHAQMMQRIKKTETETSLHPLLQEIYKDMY

[6] = target: T3, Peroxisome proliferator-activated receptor delta; assay: Agonist activity at human PPARdelta expressed in african green monkey CV1 cells by Gal4 transactivation assay; type: functional, cell-based, CV-1
[7] = system: Rattus norvegicus; assay: Antidiabetic activity in Zucker fa/fa rat assessed as reduction in triglyceride level in at 10 mg/kg, po twice a day for 5 days; type: functional; design: scale not given: the % may be the effect or the level left
[8] = AUC in Zucker fa/fa rat at 5 mg/kg, po; type: ADME, organism-based; design: dose 5 mg/kg, route oral; conditions: plasma
[9] = system: Rattus norvegicus; assay: Antidiabetic activity in Zucker fa/fa rat assessed as reduction in hematocrit level in at 10 mg/kg, po twice a day for 5 days; type: functional; design: scale not given: the % may be the effect or the level left
[10] = system: Rattus norvegicus; assay: Antidiabetic activity in Zucker fa/fa rat assessed as reduction in plasma glucose level in at 10 mg/kg, po twice a day for 5 days; type: functional; design: scale not given: the % may be the effect or the level left
[11] = target: T4, Peroxisome proliferator-activated receptor alpha (Homo sapiens) (UniProt Q07869); assay: Agonist activity at human PPARalpha expressed in african green monkey CV1 cells by Gal4 transactivation assay relative to SW516; type: functional, cell-based; conditions: CV-1
T4 sequence (whole entry): T1 sequence (Q07869 whole entry)

[12] = target: T5, Peroxisome proliferator-activated receptor gamma (Mus musculus, UniProt P37238); assay: Agonist activity at mouse PPARgamma expressed in african green monkey CV1 cells by Gal4 transactivation assay; type: functional, cell-based, CV-1
T5 sequence (P37238 whole entry): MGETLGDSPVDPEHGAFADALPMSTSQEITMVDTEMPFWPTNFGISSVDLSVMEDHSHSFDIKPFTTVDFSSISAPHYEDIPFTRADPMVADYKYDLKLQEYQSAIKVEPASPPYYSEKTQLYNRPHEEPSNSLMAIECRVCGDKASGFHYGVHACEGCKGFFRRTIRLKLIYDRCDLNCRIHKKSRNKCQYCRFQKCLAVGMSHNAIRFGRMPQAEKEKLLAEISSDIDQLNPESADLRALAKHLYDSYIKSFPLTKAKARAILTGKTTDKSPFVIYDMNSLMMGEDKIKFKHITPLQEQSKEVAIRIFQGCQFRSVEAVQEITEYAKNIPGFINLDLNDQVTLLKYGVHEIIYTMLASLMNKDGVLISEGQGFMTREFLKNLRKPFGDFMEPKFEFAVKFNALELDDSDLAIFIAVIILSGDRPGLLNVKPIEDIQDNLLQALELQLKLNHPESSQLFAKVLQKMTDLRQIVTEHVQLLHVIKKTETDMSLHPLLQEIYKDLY

[13] = target: T6, Peroxisome proliferator-activated receptor delta (Mus musculus, UniProt P35396); assay: Agonist activity at mouse PPARdelta expressed in african green monkey CV1 cells by Gal4 transactivation assay; type: functional, cell-based, CV-1
T6 sequence (P35396 whole entry): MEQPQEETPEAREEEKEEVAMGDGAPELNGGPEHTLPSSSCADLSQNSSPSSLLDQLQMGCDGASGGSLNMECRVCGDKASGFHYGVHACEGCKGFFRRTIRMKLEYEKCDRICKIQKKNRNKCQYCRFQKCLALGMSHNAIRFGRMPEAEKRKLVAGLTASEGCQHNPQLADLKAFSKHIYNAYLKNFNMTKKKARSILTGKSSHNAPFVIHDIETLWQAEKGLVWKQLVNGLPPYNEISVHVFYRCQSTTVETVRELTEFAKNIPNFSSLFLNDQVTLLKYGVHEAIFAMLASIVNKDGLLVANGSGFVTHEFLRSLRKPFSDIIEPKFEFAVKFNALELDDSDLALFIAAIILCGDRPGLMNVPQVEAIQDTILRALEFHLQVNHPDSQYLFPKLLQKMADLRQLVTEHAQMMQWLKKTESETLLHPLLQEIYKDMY

[14] = target: T7, Peroxisome proliferator-activated receptor alpha (Mus musculus, UniProt P23204); assay: Agonist activity at mouse PPARalpha expressed in african green monkey CV1 cells by Gal4 transactivation assay; type: functional, cell-based, CV-1
T7 sequence (P23204 whole entry): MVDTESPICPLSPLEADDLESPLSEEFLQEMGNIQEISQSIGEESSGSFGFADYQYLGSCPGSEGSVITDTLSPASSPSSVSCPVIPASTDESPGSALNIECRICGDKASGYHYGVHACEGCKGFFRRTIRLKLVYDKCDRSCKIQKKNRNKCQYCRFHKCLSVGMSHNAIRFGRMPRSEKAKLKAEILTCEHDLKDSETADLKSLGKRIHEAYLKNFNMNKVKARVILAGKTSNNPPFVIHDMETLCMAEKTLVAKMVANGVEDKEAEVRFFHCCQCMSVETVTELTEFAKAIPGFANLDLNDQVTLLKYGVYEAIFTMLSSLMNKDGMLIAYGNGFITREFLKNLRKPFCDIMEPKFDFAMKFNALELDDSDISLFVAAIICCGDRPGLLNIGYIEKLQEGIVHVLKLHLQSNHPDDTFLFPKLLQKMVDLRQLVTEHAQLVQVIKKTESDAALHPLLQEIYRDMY

| EC50 [1] | IC50 [2] | EC50 [3] | IC50 [4] | IC50 [5] | EC50 [6] | Activity [11] | EC50 [12] | EC50 [13] | EC50 [14] | Compound | Activity [7] | AUC [8] | Activity [9] | Activity [10] |
| --- | --- | --- | --- | --- | --- | --- | --- | --- | --- | --- | --- | --- | --- | --- |
| > 10 µM | > 10 µM | 3 nM | 36 nM | > 10 µM | > 10 µM | – | – | – | – | CCCc1c(SC)c2cc(NC(=O)C(CC)c3ccccc3)ccc2n1Cc1ccc(-c2ccccc2C(=O)O)cc1 (centres undefined) | – | – | – | – |
| > 10 µM | > 10 µM | 1 nM | 12 nM | > 10 µM | > 10 µM | – | – | – | – | CCC(NC(=O)c1ccc2c(c1)c(SC)c(C)n2Cc1ccc(-c2ccccc2C(=O)O)cc1)c1ccccc1 (centres undefined) | – | – | – | – |
| 6.14 µM | > 10 µM | 338 nM | 574 nM | > 10 µM | – | 45% | – | – | – | CCC(C(=O)Nc1ccc2c(c1)c(C)c(C)n2Cc1ccc(-c2ccccc2C(=O)O)cc1)c1ccccc1 (centres undefined) | – | – | – | – |
| 4.96 µM | 7.04 µM | 17 nM | 18 nM | > 10 µM | > 10 µM | 114% | – | – | – | CCC(NC(=O)c1ccc2c(c1)cc(C)n2Cc1ccc(-c2ccccc2C(=O)O)cc1)c1ccccc1 (centres undefined) | – | – | – | – |

Continued, compound first:

| Compound | EC50 [1] | IC50 [2] | EC50 [3] | IC50 [4] | IC50 [5] | EC50 [6] | Activity [11] | EC50 [12] | EC50 [13] | EC50 [14] | Activity [7] | AUC [8] | Activity [9] | Activity [10] |
| --- | --- | --- | --- | --- | --- | --- | --- | --- | --- | --- | --- | --- | --- | --- |
| Cc1c(C)n(Cc2ccc(-c3ccccc3C(=O)O)cc2)c2ccc(C(=O)NCCCc3ccccc3)cc12 | > 10 µM | > 10 µM | 22 nM | 18 nM | > 10 µM | > 10 µM | – | – | – | – | – | – | – | – |
| CN(CCOc1ccc(C[C@H](Nc2ccccc2C(=O)c2ccccc2)C(=O)O)cc1)c1ccccn1 | – | – | – | – | – | – | – | – | – | – | 54% | 16500 ng·h/mL | 15% | 21% |
| CCCc1nc2c(C)cc(-c3nc4ccccc4n3C)cc2n1Cc1ccc(-c2ccccc2C(=O)O)cc1 | > 10 µM | > 10 µM | 2020 nM | 12200 nM | > 10 µM | > 10 µM | – | 4.06 µM | > 10 µM | > 10 µM | – | – | – | – |
